“Also recorded” adds a separate entry of the source.
Key:
[1] = tested on: TSHR expression in ATC PDX tumors (THJ-560 / MC-Th-560); assay: IHC of TSHR and pERK in ATC PDX tumors treated with MEK/BRAF inhibitors; format: in vivo, NSG mice
Description: Immunostaining was performed on paraffin-embedded tissue. Thyroid tissue microarray (TMA) was made from archival samples. Paraffin blocks were cut into 5 μm thick sections. Slides were deparaffinized, and were rehydrated with decreasing concentrations of ethanol and finally in water. Antigen retrieval was performed using Antigen Retrieval Solution (pH 6 or pH 9) (Dako, Glostrup, Denmark), for at least 15 minutes in an autoclave, and cooling for 30 minutes at room temperature. Washing slides with 3% hydrogen peroxide (Fisher Scientific, Waltham, MA, USA) for 10 minutes blocked the activity of endogenous peroxidases. Primary anti-human antibodies were used for 60 minutes at room temperature and at the following dilutions: TSHR antibody at 1:500 (abcam, ab218108, Cambridge, UK) and NIS antibody at 1:200 (ProteinTech, 24324-1-AP, Rosemont, IL, USA), CD14 antibody at 1:100 (abcam, ab183322, Cambridge, UK), CD80 at 1:1000 (abcam, ab134120, Cambridge, UK), CD206 at 1:5000 (abcam, ab64693, Cambridge, UK), Ki67 at 1:1000 (abcam, ab15580, Cambridge, UK), cleaved caspase 3 (Asp175) CC3 at 1:100 (Cell Signaling 9661, Danvers, MA, USA), and CD31 at (Santa Cruz Biotechnology, sc-1506, Dallas, TX, USA).
In this model, 5 mm^3 MC-Th-560 ATC PDX tissue was surgically implanted into the right lateral flank of NSG mice and grown to ˜100 mm^3. Mice then received daily treatment with either vehicle control or trametinib (MEK inhibitor) at the indicated doses.
The following was performed to assess the kinetics of TSHR expression after MEK/BRAF inhibition. Mice were implanted with 5 mm^3 Th-560 ATC PDX tumors. When tumors reached ˜100 mm^3, mice were treated daily with either vehicle control or with 1.5 mg/kg R05126766 plus 1 mg/kg dabrafenib.
Immunostaining was performed on paraffin-embedded tissue. Thyroid tissue microarray (TMA) was made from archival samples. Paraffin blocks were cut into 5 μm thick sections. […] The primary antibody was detected using the Envision Labeled Kit (Dako, Glostrup, Denmark) according to the manufacturer's protocol. […]

ATC THJ-560 PDX tumors = assay: Tumor volume of ATC PDX tumors treated with MEK/BRAF inhibitors; format: in vivo, NSG mice
Description: FIGS. 9A-9J. Treatment of thyroid tumors with MAPK inhibitors results in upregulation of TSHR. […] NSG mice treated with different daily doses of trametinib for 8 days and tumor volume regression was measured. FIG. 9B) TSHR expression was restored with higher dose of trametinib, whereas pERK expression was reduced. Right. […] Left. Association between H-score of TSHR and pERK in correlation with trametinib dose-escalation. […] Assessment of tumor volume on NSG mice treated with different doses of R05126766. […] Right. ICH tumor sections showing TSRH and pERK expression. Left. H-score of TSRH and pERK in association with increasing doses of R05126766. FIG. 9E) Experimental schema of an ATC PDX model treated with MAPK inhibitors (MEKi and BRAFi). […] Treatment was begun when tumors were ˜75-100 mm^3. […] Upper panel. H-score of TSHR in ATC-derived treated tumors (One-way ANOVA; **p<0.01; n=4 mice; error bars, SEM). Lower panel. TSHR expression assessment via IHC. […] Tumor volume assessment over a period of 7 days of MAPK inhibitors dosage. FIG. 9H) Experimental schema of an ATC PDX model treated with MEK inhibitors. NSG mice were implanted with ATC PDX tumors and treatment with MEK inhibitors (for 14 days) R05126766 and trametinib started (daily dosage) when tumors reached ˜75-100 mm^3. […] Upper panel. […]

[2] = tested on: luciferase/TSHR+/+ K562 or luciferase/TSHR+/+ FTC133 cells; details: presence or absence of MEK inhibitor (10 nM trametinib, FTC133, 48 hours in FIG. 10A)
Description: Cytotoxicity assays: Cytotoxicity assays were performed as described elsewhere (see, e.g., Sterner, R. M. et al., Blood 133, 697-709 (2019)). In summation, luciferase/TSHR+/+K562 or luciferase/TSHR+/+FTC133 cells was used as a target cell. TSHR-CAR T cells or batch-matched control donor untransduced (non-transduced) T cells (UTD) were co-cultured with target cells at serial effector: target (E:T) ratios in T cell media. Cytotoxic efficiency was calculated by bioluminescence imaging on the Xenogen IVIS-200 Spectrum (PerkinElmer, Hopkinton, MA, USA) or Promega GlowMax Explorer (Promega Corporation, Fitchburg, WI, USA) at 24 hours, 48 hours, and 72 hours, as indicated in the specific experiment.
Cytotoxicity assays were performed as described elsewhere (Sterner, R. M. et al., Blood 133, 697-709 (2019)). Luciferase*TSHR*K562 or FTC133 cells were used as target cells. UTD or TSHR-CART cells were co-cultured with target cells at various effector: target (E:T) ratios in T cell medium. Cytotoxic efficiency was calculated by bioluminescence imaging on the Promega GlowMax Explorer (Promega Corporation, Fitchburg, WI, USA) at indicated time points.

[3] = one week of daily treatment at escalating doses, MC-Th-560 ATC PDX, vs placebo

Structure (SMILES)	TSHR protein expression by IHC ([1]; 14 days daily oral, 1.5 mg/kg R05126766 or 1 mg/kg trametinib, vs vehicle/placebo)	TSHR expression by IHC, dose escalation [1, 3]	pERK expression by IHC, dose escalation [1, 3]	anti-tumor activity (tumor volume by caliper) (ATC THJ-560 PDX tumors; 14 days daily, placebo, R05126766 or trametinib)	tumor volume, dose escalation (ATC THJ-560 PDX tumors; different daily doses (trametinib: 8 days))	effect of MEK inhibitor on TSHR CART cell cytotoxicity [2]
CNS(=O)(=O)Nc1nccc(Cc2c(C)c3ccc(Oc4ncccn4)cc3oc2=O)c1F [Clone R05126766]	elevated significantly; also recorded: increased TSHR expression	increase in TSHR expression; also recorded: increased expression of TSRH	reduction of pERK; also recorded: lower expression of pERK	better anti-tumor activity in comparison to trametinib	dose-depended tumor reduction; also recorded: proportional to thyroid tumor volume reduction	
CC(=O)Nc1cccc(-n2c(=O)n(C3CC3)c(=O)c3c(Nc4ccc(I)cc4F)n(C)c(=O)c(C)c32)c1 [trametinib]						did not impair
